Assays:
MDA-MB-231 tumors = assay: Human breast xenograft, tumor volume
Procedure: (§1) Female athymic nu/nu mice (Harlan Laboratories Models, S.L. Barcelona, Spain or Envigo, Spain) were utilized for all experiments. Animal were housed in individually ventilated cages Sealsafe® Plus, Techniplast S.P.A.), up to ten per cage on a 12-hour light-dark cycle at 21-23° C. and 40-60% humidity. […] Animals were acclimated for at least 5 days prior to tumor implantation with a tumor cell suspension.
MDA-MB-231 cells were maintained in vitro at 37° C. with 5% CO2 in Dulbecco's Modified Eagle's Medium (Sigma-Aldrich, Co). Culture cells were passaged every 3 to 5 days upon reaching confluence.
(§2) Treatment tolerability was assessed by monitoring body weight evolution, clinical signs of systemic toxicity, as well as evidences of local damage in the injection site.
(§3) In Xenograft Studies with Other Cell Lines: • Tumor volume was calculated using the equation (a·b^2)/2, where a: length (longest diameter) and b: width (shortest diameter) were measured in mm by using digital caliper (Fowler Sylvac, S235PAT).
(§4) Treatments producing >20% lethality and/or 20% net body weight loss were considered toxic.

A2780 tumors = assay: Human ovarian xenograft, tumor volume
Procedure: as §1
Culture cells were passaged every 3 to 5 days upon reaching confluence. Each animal was subcutaneously implanted (on the right flank using 26G needle and a 1 cc syringe) at 4-6 weeks of age with 10×10^6 A2780 cells suspended in 0.05 mL of a solution consisting of 50% Matrigel® (Corning Incorporated Life Sciences) and 50% medium without serum or antibiotics.
as §2, §3, §4

H460 tumors = assay: Human lung (NSCLC) xenograft, tumor volume
Procedure: as §1
H460 cells were maintained in vitro at 37° C. with 5% CO2 in Dulbecco's Modified Eagle's Medium (Sigma-Aldrich, Co). Culture cells were passaged every 3 to 5 days upon reaching confluence. Each animal was subcutaneously implanted (on the right flank using 26G needle and a 1 cc syringe) at 4-6 weeks of age with 5×10^6 H460 cells suspended in 0.05 mL of a solution consisting of 50% Matrigel® (Corning Incorporated Life Sciences) and 50% medium without serum or antibiotics.
as §2, §3, §4
Tables and figures summarize the data obtained from complete experimental groups, i.e. those groups keeping the initial number of animals, n=8-10.

HGC27 tumors = assay: Human gastric xenograft, tumor volume
HT1080 tumors = assay: Human fibrosarcoma xenograft, total diameter (tumor + leg)

## COc1c(C)cc2c(c1O)[C@@H]1[C@@H]3[C@@H]4SC[C@]5(N[C@H](CO)Cc6c5oc5ccccc65)C(=O)OC[C@@H](c5c6c(c(C)c(OC(C)=O)c54)OCO6)N3[C@@H](O)[C@H](C2)N1C [Compound 39-S]
MDA-MB-231 tumors; Day 2
  Median Tumor Volume: 209.3 mm^3
MDA-MB-231 tumors; Day 5
  Median Tumor Volume: 290.9 mm^3
MDA-MB-231 tumors; Day 7
  Median Tumor Volume: 301.8 mm^3
MDA-MB-231 tumors; Day 9
  Median Tumor Volume: 300.8 mm^3
MDA-MB-231 tumors; Day 12
  Median Tumor Volume: 278.7 mm^3
MDA-MB-231 tumors; Day 14
  Median Tumor Volume: 249.7 mm^3
MDA-MB-231 tumors; Day 16
  Median Tumor Volume: 243.6 mm^3
MDA-MB-231 tumors; Day 19
  Median Tumor Volume: 248.3 mm^3
MDA-MB-231 tumors; Day 21
  Median Tumor Volume: 250.0 mm^3
MDA-MB-231 tumors; Day 23
  Median Tumor Volume: 260.3 mm^3
MDA-MB-231 tumors; Day 26
  Median Tumor Volume: 304.9 mm^3
MDA-MB-231 tumors; Day 28
  Median Tumor Volume: 337.1 mm^3
MDA-MB-231 tumors; Day 30
  Median Tumor Volume: 451.3 mm^3
MDA-MB-231 tumors; Day 33
  Median Tumor Volume: 584.1 mm^3
MDA-MB-231 tumors; Day 35
  Median Tumor Volume: 683.4 mm^3
MDA-MB-231 tumors; Day 37
  Median Tumor Volume: 784.7 mm^3
MDA-MB-231 tumors; Day 40
  Median Tumor Volume: 937.4 mm^3
MDA-MB-231 tumors; Day 42
  Median Tumor Volume: 1060.5 mm^3
MDA-MB-231 tumors; Day 44
  Median Tumor Volume: 1170.5 mm^3
MDA-MB-231 tumors; Day 47
  Median Tumor Volume: 1112.9 mm^3
MDA-MB-231 tumors; Day 49
  Median Tumor Volume: 1138.6 mm^3
MDA-MB-231 tumors; Day 51
  Median Tumor Volume: 1283.2 mm^3
MDA-MB-231 tumors; Day 54
  Median Tumor Volume: 1415.1 mm^3
MDA-MB-231 tumors; Day 56
  Median Tumor Volume: 1518.7 mm^3
MDA-MB-231 tumors; Day 58
  Median Tumor Volume: 1728.5 mm^3
MDA-MB-231 tumors; Day 61
  Median Tumor Volume: 2017.9 mm^3
A2780 tumors; Day 2
  Median Tumor Volume: 206.5 mm^3
A2780 tumors; Day 5
  Median Tumor Volume: 163.4 mm^3
A2780 tumors; Day 7
  Median Tumor Volume: 298.6 mm^3
A2780 tumors; Day 9
  Median Tumor Volume: 317.4 mm^3
A2780 tumors; Day 12
  Median Tumor Volume: 378.2 mm^3
A2780 tumors; Day 14
  Median Tumor Volume: 668.5 mm^3
A2780 tumors; Day 16
  Median Tumor Volume: 853.5 mm^3
A2780 tumors; Day 19
  Median Tumor Volume: 1415.5 mm^3
A2780 tumors; Day 21
  Median Tumor Volume: 1519.2 mm^3
A2780 tumors; Day 23
  Median Tumor Volume: 1666.0 mm^3
A2780 tumors; Day 30
  Median Tumor Volume: 2025.0 mm^3
H460 tumors; Day 2
  Median Tumor Volume: 314.4 mm^3
H460 tumors; Day 5
  Median Tumor Volume: 584.1 mm^3
H460 tumors; Day 7
  Median Tumor Volume: 831.2 mm^3
H460 tumors; Day 9
  Median Tumor Volume: 841.0 mm^3
H460 tumors; Day 12
  Median Tumor Volume: 1008.0 mm^3
H460 tumors; Day 14
  Median Tumor Volume: 1309.8 mm^3
H460 tumors; Day 16
  Median Tumor Volume: 1470.0 mm^3
H460 tumors; Day 19
  Median Tumor Volume: 2025.0 mm^3
HGC27 tumors; Day 2
  Median Tumor Volume: 356.3 mm^3
HGC27 tumors; Day 5
  Median Tumor Volume: 469.7 mm^3
HGC27 tumors; Day 7
  Median Tumor Volume: 467.8 mm^3
HGC27 tumors; Day 9
  Median Tumor Volume: 575.2 mm^3
HGC27 tumors; Day 12
  Median Tumor Volume: 611.1 mm^3
HGC27 tumors; Day 14
  Median Tumor Volume: 637.3 mm^3
HGC27 tumors; Day 16
  Median Tumor Volume: 690.4 mm^3
HGC27 tumors; Day 19
  Median Tumor Volume: 701.8 mm^3
HGC27 tumors; Day 21
  Median Tumor Volume: 697.4 mm^3
HGC27 tumors; Day 23
  Median Tumor Volume: 715.5 mm^3
HGC27 tumors; Day 26
  Median Tumor Volume: 898.1 mm^3
HGC27 tumors; Day 28
  Median Tumor Volume: 1163.4 mm^3
HGC27 tumors; Day 30
  Median Tumor Volume: 1409.3 mm^3
HGC27 tumors; Day 33
  Median Tumor Volume: 1450.5 mm^3
HGC27 tumors; Day 35
  Median Tumor Volume: 1708.5 mm^3
HGC27 tumors; Day 37
  Median Tumor Volume: 1804.4 mm^3
HGC27 tumors; Day 40
  Median Tumor Volume: 2075.2 mm^3
HT1080 tumors; Day 2
  Total diameter (tumor + leg): 7.9 mm
HT1080 tumors; Day 5
  Total diameter (tumor + leg): 6.4 mm
HT1080 tumors; Day 7
  Total diameter (tumor + leg): 6.8 mm
HT1080 tumors; Day 9
  Total diameter (tumor + leg): 6.9 mm
HT1080 tumors; Day 12
  Total diameter (tumor + leg): 6.6 mm
HT1080 tumors; Day 14
  Total diameter (tumor + leg): 6.4 mm
HT1080 tumors; Day 16
  Total diameter (tumor + leg): 6.8 mm
HT1080 tumors; Day 19
  Total diameter (tumor + leg): 7.0 mm
HT1080 tumors; Day 21
  Total diameter (tumor + leg): 7.0 mm
HT1080 tumors; Day 23
  Total diameter (tumor + leg): 8.5 mm
HT1080 tumors; Day 27
  Total diameter (tumor + leg): 10.8 mm
HT1080 tumors; Day 33
  Total diameter (tumor + leg): 14.3 mm
HT1080 tumors; Day 35
  Total diameter (tumor + leg): 15.3 mm
HT1080 tumors; Day 37
  Total diameter (tumor + leg): 18.0 mm

## COc1c(C)cc2c(c1O)[C@@H]1[C@@H]3[C@@H]4SC[C@]5(N[C@@H](CN)Cc6c5oc5ccccc65)C(=O)OC[C@@H](c5c6c(c(C)c(OC(C)=O)c54)OCO6)N3[C@@H](O)[C@H](C2)N1C [Compound 47-R]
MDA-MB-231 tumors; Day 2
  Median Tumor Volume: 225.3 mm^3
MDA-MB-231 tumors; Day 5
  Median Tumor Volume: 323.2 mm^3
MDA-MB-231 tumors; Day 7
  Median Tumor Volume: 405.0 mm^3
MDA-MB-231 tumors; Day 9
  Median Tumor Volume: 495.9 mm^3
MDA-MB-231 tumors; Day 12
  Median Tumor Volume: 594.1 mm^3
MDA-MB-231 tumors; Day 14
  Median Tumor Volume: 769.5 mm^3
MDA-MB-231 tumors; Day 16
  Median Tumor Volume: 1009.5 mm^3
MDA-MB-231 tumors; Day 19
  Median Tumor Volume: 1298.0 mm^3
MDA-MB-231 tumors; Day 21
  Median Tumor Volume: 1580.7 mm^3
MDA-MB-231 tumors; Day 23
  Median Tumor Volume: 2006.5 mm^3
MDA-MB-231 tumors; Day 26
  Median Tumor Volume: 2032.1 mm^3
A2780 tumors; Day 2
  Median Tumor Volume: 280.6 mm^3
A2780 tumors; Day 5
  Median Tumor Volume: 653.9 mm^3
A2780 tumors; Day 7
  Median Tumor Volume: 848.7 mm^3
A2780 tumors; Day 9
  Median Tumor Volume: 1569.1 mm^3
A2780 tumors; Day 12
  Median Tumor Volume: 1764.0 mm^3
A2780 tumors; Day 14
  Median Tumor Volume: 1666.0 mm^3
A2780 tumors; Day 16
  Median Tumor Volume: 2025.0 mm^3
H460 tumors; Day 2
  Median Tumor Volume: 508.1 mm^3
H460 tumors; Day 5
  Median Tumor Volume: 979.3 mm^3
H460 tumors; Day 7
  Median Tumor Volume: 1280.0 mm^3
H460 tumors; Day 9
  Median Tumor Volume: 1543.1 mm^3
H460 tumors; Day 12
  Median Tumor Volume: 1764.0 mm^3
H460 tumors; Day 14
  Median Tumor Volume: 1845.5 mm^3
HGC27 tumors; Day 2
  Median Tumor Volume: 359.4 mm^3
HGC27 tumors; Day 5
  Median Tumor Volume: 774.8 mm^3
HGC27 tumors; Day 7
  Median Tumor Volume: 1155.4 mm^3
HGC27 tumors; Day 9
  Median Tumor Volume: 1474.7 mm^3
HGC27 tumors; Day 12
  Median Tumor Volume: 1870.2 mm^3
HGC27 tumors; Day 14
  Median Tumor Volume: 2031.3 mm^3
HGC27 tumors; Day 16
  Median Tumor Volume: 2075.2 mm^3
HT1080 tumors; Day 2
  Total diameter (tumor + leg): 8.9 mm
HT1080 tumors; Day 5
  Total diameter (tumor + leg): 10.1 mm
HT1080 tumors; Day 7
  Total diameter (tumor + leg): 10.5 mm
HT1080 tumors; Day 9
  Total diameter (tumor + leg): 11.5 mm
HT1080 tumors; Day 12
  Total diameter (tumor + leg): 13.5 mm
HT1080 tumors; Day 14
  Total diameter (tumor + leg): 13.9 mm
HT1080 tumors; Day 16
  Total diameter (tumor + leg): 14.6 mm
HT1080 tumors; Day 19
  Total diameter (tumor + leg): 18.0 mm

Reference: patent US12384800B2, “Antitumoral compounds” (priority 2017, dated 2025)
